From patent publication US20120238915A1, “SOUND WAVE TREATMENT PLATFORM AND SOUND WAVE TREATMENT METHOD” (priority 2011, published 2012)

Legend:
[1] = system: non-operable pancreatic cancer
[2] = system: metastatic pancreatic cancer to liver; experiment: Example 1: patient treated with non-focused sound waves with Bleomycin; format: in vivo, human; conditions: 30 mg Bleomycin + sound waves 0.3 MHz
Experimental: person one was diagnosed with metastatic pancreatic cancer to liver. Treatment history was as follows: Gemcitabine, Tykerb, Xeloda, and 6000R radiation therapy. Despite multiple treatments, patient's condition continues to worsen with increased abdominal pain. The patient was taking pain medication with constipation.
The patient was treated according to the present invention with 30 mg Bleomycin (Frequency: 0.3 MHz; power intensity: less than 2 W/cm^2; duration: less than 30 minutes). […] Their tumor marker CA19-9 decreased from 1465 to 406 in 9 days after the treatment. They remained pain free for 150 days after the treatment till their death clue to organ failure.

[3] = system: metastatic pancreatic cancer to liver; experiment: Example 4: patient treated with non-focused sound waves with Bleomycin; format: in vivo, human; conditions: 30 mg Bleomycin + sound waves 0.3 MHz
Experimental: person three was diagnosed with metastatic pancreatic cancer to liver and has been treated with Palliative bypass operation. No chemotherapy history. They were in very terminal stage with severe jaundice and great pain. They used Fetanyl patch and additional pain medication. The patient was treated according to the present invention with 30 mg Bleomycin (Frequency: 0.3 MHz; power intensity: less than 2 W/cm^2; duration: less than 30 minutes). […] They remained pain free for 4 days till their death due to hepatic failure.

metastatic breast cancer = experiment: Example 6: patient treated with non-focused sound waves with Bleomycin; format: in vivo, human; conditions: 30 mg Bleomycin + sound waves 0.3 MHz
Experimental: person two was diagnosed with metastatic breast cancer, and complained of three weeks left shoulder pain.
(§1) The patient was treated according to the present invention with 30 mg Bleomycin (Frequency: 0.3 MHz; power intensity: less than 2 W/cm^2; duration: less than 30 minutes).

[4] = system: metastatic oral cancer to the face; experiment: Example 7: patient treated with non-focused sound waves with Bleomycin; format: in vivo, human; conditions: 30 mg Bleomycin + sound waves 0.3 MHz
Experimental: person six was diagnosed with metastatic oral cancer to the face, and complained of severe facial pain. They have been treated with multiple surgery and chemoradiation. They presented with a large area of metastatic facial mass, and their right eye was bulging due to tumor infiltration.
as §1

terminal hepatoma = experiment: Example 8: patient treated with non-focused sound waves with Bleomycin; format: in vivo, human; conditions: 30 mg Bleomycin + sound waves 0.3 MHz
Experimental: person four was diagnosed with terminal hepatoma and liver pain.
as §1

[5] = system: recurrent breast cancer and metastasis to the liver; experiment: Example 9: patient treated with non-focused sound waves with Bleomycin; format: in vivo, human
Experimental: person two was diagnosed with recurrent breast cancer and metastasis to the liver. They had multiple chemotherapy and target medicine treatment.
The patient was treated twice (one week apart) according to the present invention with 30 mg Bleomycin each time (Frequency: 0.3 MHz; power intensity: less than 2 W/cm^2; duration: less than 30 minutes (each time)). […] Their right upper quadrant pain resolved and remained pain free over 18 months till last follow up.

[6] = system: terminal metastatic ovarian cancer; experiment: Example 10: patient treated with non-focused sound waves with Bleomycin; format: in vivo, human
Experimental: person five was diagnosed with terminal metastatic ovarian cancer with colostomy and complained of abdominal pain.
The patient was treated twice (one week apart) according to the present invention combined with 30 mg Bleomycin each time (Frequency: 0.3 MHz; power intensity: less than 2 W/cm^2; duration: less than 30 minutes (each time)). […] They remained pain free for over 8 months till their death due to sepsis.

[7] = system: recurrent pancreatic cancer; conditions: human, in vivo
[8] = system: metastatic pancreatic cancer to liver; experiment: Example 3: patient treated with non-focused sound waves with Bleomycin; conditions: 30 mg Bleomycin + sound waves 0.3 MHz
[9] = person two, 30 mg Bleomycin + sound waves 0.3 MHz

Nc1ccn([C@@H]2O[C@H](CO)[C@@H](O)C2(F)F)c(=O)n1 [Gemcitabine]
tumor growth in diameter ([1]; during at least four months of weekly Gemcitabine, after Bleomycin + sound wave treatments): 1.4 cm

Bleomycin
tumor marker CA19-9 ([2]; decreased from 1465, in 9 days after the treatment): 406 | constipation symptom ([2]; person one, after the treatment): relieved | pain medication use after treatment ([2]; person one, one treatment): has not taken any pain medication since the treatment | side effect ([2]; person one, one treatment): no side effect was observed | patient's pain ([2]; person one, one treatment, <2 W/cm^2, <30 min): dissolved | remained pain free after the treatment ([2]; till death due to organ failure): 150 days | pain medication use after treatment [3]: without using anymore pain medication | side effect ([3]; person three): no side effect was observed | time in which pain vanished ([3]; person three, one treatment): 6 h | pain ([3]; person three, one treatment, <2 W/cm^2, <30 min): totally vanished | remained pain free ([3]; till death due to hepatic failure): 4 days | pain free duration (metastatic breast cancer): over seven months | side effect (metastatic breast cancer; person two, one treatment, <2 W/cm^2, <30 min): no side effect was observed | shoulder pain (metastatic breast cancer; till death due to brain metastasis): did not have shoulder pain | facial tumor size [4]: decreased in size | right eye (bulging due to tumor infiltration) [4]: less bulging and could rotate | side effect ([4]; person six): no side effect | facial pain ([4]; person six, one treatment, <2 W/cm^2, <30 min): totally resolved | remained pain free ([4]; till last follow up): over 33 days | pain free till death (terminal hepatoma): 14 days | side effect (terminal hepatoma; person four): no side effect | right quadrant pain (terminal hepatoma; person four, one treatment, <2 W/cm^2, <30 min): vanished | right upper quadrant pain ([5]; 30 mg Bleomycin twice + sound waves 0.3 MHz): resolved | liver tumor diameter (imaging study), second tumor ([5]; decreased from 7 cm, after the first treatment): 4 cm | liver tumor diameter (imaging study), first tumor ([5]; decreased from 10 cm, after the first treatment): 7 cm | side effect [5, 9]: no side effect | liver tumors size ([5]; person two, after the first of two treatments one week apart, 30 mg Bleomycin each + sound waves 0.3 MHz, <2 W/cm^2, <30 min): significantly decreased in size | follow up imaging studies ([5]; several follow up imaging studies, 30 mg Bleomycin twice + sound waves): stable liver metastasis | remained pain free ([5]; till last follow up, 30 mg Bleomycin twice + sound waves): over 18 months | side effect ([6]; person five, 30 mg Bleomycin + sound waves 0.3 MHz): no side effect | abdominal pain ([6]; person five, after the first of two treatments one week apart, 30 mg Bleomycin each + sound waves 0.3 MHz, <2 W/cm^2, <30 min): resolved | remained pain free ([6]; till death due to sepsis, 30 mg Bleomycin twice + sound waves): over 8 months | body weight [7]: increased | pain medication use after treatment [7]: has not taken any pain medication since the first treatment till their death | pain scale [7]: 0-1 | physical activity [7]: returned to near normal | remained pain free after the treatment [7]: 170 days | side effect [7]: no side effect was observed | survival after first diagnosis [7]: lived two years after their first diagnosis | jaundice ([1]; after Bleomycin + sound wave treatments and weekly Gemcitabine): did not have jaundice | blood sugar ([1]; insulin dependent diabetic patient, after the treatment, remained till death): returned to normal level without using insulin | side effect [1, 9]: no side effect was observed | pancreatic region pain ([1]; person two, after the first treatment, 30 mg Bleomycin + sound waves 0.3 MHz, <2 W/cm^2, <30 min): resolved | remained pain free after the treatment ([1]; till death, 30 mg Bleomycin three times (third followed by 1000 mg Gemcitabine) + sound waves): 183 days | pain free [8]: 32 days | side effect ([8]; person seven): no side effect was observed | patient's pain ([8]; person seven, one treatment, <2 W/cm^2, <30 min): totally dissolved | pain medication use after treatment ([8]; until death due to sepsis): without using any pain medication
